Reference: patent publication US6667293B1, “Use of cyclodextrins to modulate gene expression with reduced immunostimulatory response” (priority 1995, dated 2003)

Experiments:
spleen of CD1 mice = experiment: Spleen size (spleen weight) after intraperitoneal injection; type: in vivo, mouse
Description: (§1) Male CD1 mice (4-5 weeks, 20-22 g, Charles river, Wilmington, Mass.) were used in this study. The animals were fed with commercial diet and water ad libidum and were kept at the animal facility of the University of Massachusetts Medical Center (Worcester, Mass.). For in vivo studies, phosphorothioate oligonucleotides (final concentration 4 mg/ml) were mixed with 5% of the cyclodextrin HPCD or HECD in sterile PBS, sonicated at 4° C. for 1 hour, followed by incubation at 4° C. overnight. The phosphorothioate oligonucleotide, either in plain PBS or mixed with cyclodextrin, was injected into mice intraperitoneally, in a volume of 0.25 ml (1 mg/mouse). After 24 hr (in the case of the phosphorothioate oligonucleotide of SEQ ID NO:4) and 48 hr (in the case of the phosphorothioate oligonucleotide of SEQ ID NO:2), mice were sacrificed and spleens were collected and prepared for further studies. Two or three mice were studied for each condition and analyzed individually.

[1] = test system: murine splenic lymphocytes; experiment: Cell cycle analysis, in vitro (propidium iodide flow cytometry); type: cell-based, mouse; details: 48 hours, oligonucleotide 10 μg/ml, cyclodextrin 0.5%
[2] = test system: spleen lymphocytes of CD1 mice; experiment: Immunoglobulin synthesis (IgG/IgM ELISA) by spleen cells of in vivo treated mice; parameters: species or system mouse
Description: as §1
Spleens from in vivo treated mice were harvested and single cell suspensions were set in culture at a density of 10^6 cells/ml, in 1 ml RPMI complete medium. […] The optical density (405 nm) was measured using an automatic ELISA plate reader (Bio-Tek Instruments, Inc). IgG and IgM levels were calculated based on the standard curve. […]

HIV-1 = details: background statement; cited from earlier work
spleen cells of CD1 mice = experiment: Cell cycle analysis of spleen cells from in vivo treated mice; parameters: species or system mouse
Description: as §1, with “The phosphorothioate oligonucleotide, either in plain PBS or mixed with cyclodextrin, was injected into mice intraperitoneally, in a volume of 0.25 ml (1 mg/mouse).” left out
Spleens from in vivo treated mice were harvested and single cell suspensions were set in culture in RPMI complete medium (10^6 cells/tube in 1 ml RPMI). After 4 hours of culture, cells were washed with FACS buffer and fixed for cell cycle analysis as described above. The experiments were done in duplicate.

mouse splenocytes = experiment: Splenic cell proliferation assay, [3H]-thymidine incorporation; type: cell-based; details: for cell proliferation ([3H]-thymidine incorporation): oligonucleotide alone, FIG. 1 / FIG. 3 (SEQ ID NO:4 at 1 or 10 μg/ml)
Description: Mouse spleen was taken from male CD1 mouse (4-5 weeks, Charles River, Wilmington, Mass.). Single cell suspensions were prepared by gently mincing with frosted ends of glass slides, washed twice, and then resuspended in RPMI complete medium [RPMI 1640 medium supplemented with 10%-heat inactivated (56° C. for 30 minutes) fetal bovine serum, 2 mM glutamine, 100 μg/ml streptomycin, 100 U/ml penicillin, and 50 μM 2-mercaptoethanol]. The cells were then plated in 96-well dishes at a density of 10^6 cells/ml, in a final volume of 100 μl. Oligonucleotides were added to the cell culture in 10 μl of TE buffer (10 mM Tris-HCL pH 7.5, 1 mM EDTA). Cyclodextrin analogs: 2-hydroxypropyl-βcyclodextrin (HPCD, degree of substitution 5-8), hydroxyethyl-β cyclodextrin (HECD, degree of substitution 15), and Encapsin (which is a mixture of hydroxypropyl β-cyclodextrin but has a different degree of substitution, 17.8), were purchased pyrogen free (Amaizo, Hammond, Ind.) and were added to the cells at concentration of 0.5% in RPMI medium except where indicated. Cells were then set to culture in a 37° C., 5% CO2-[…], humidified air incubator for further studies. The experiments were done in triplicate.
After 44 hours, cells were pulsed-labeled with 1 μCi [^3H]-thymidine/well (in 20 μl of RPMI medium) for 4 hours. Cells were then harvested by an automatic cell harvester (Skatron, Sterling, Va.) and the filters were counted using a scintillation counter. […] All the three cyclodextrin analogs reduced cell proliferation to similar levels.

[3] = test system: immunostimulatory response; details: known from the literature; cited from earlier work
CD1 mice = experiment: Toxicity observation after intraperitoneal injection; type: in vivo, mouse; details: i.p. 50 mg/Kg
Description: as §1
Similar experiments were performed with the phosphorothioate oligonucleotide of SEQ ID NO:4. […] In order to reduce the toxicity, 25 mg/Kg of the phosphorothioate oligonucleotide of SEQ ID NO:4 was injected into the animals.

[4] = i.p. 1 mg/mouse (50 mg/Kg), 48 hr

2-hydroxypropyl-β-cyclodextrin [HPCD]
spleen weight compared to PBS-treated mice (spleen of CD1 mice; 5% HPCD alone): no effect on spleen weight

SEQ ID NO:2: phosphorothioate oligodeoxynucleotide complementary to the rev region of HIV-1; induces an immunostimulatory response (TCGTCGCTGTCTCCGCTTCTTCTTGCC; DNA, all phosphorothioate, methylation of C not given here)
% cells in G0/G1 [1]: 77.7 ± 1.0%
% cells in G2/S [1]: 22.3 ± 1.0%
Increase (cells in S/G2 phases compared with medium alone) [1]: 44.8%
spleen weight relative to PBS-treated mice (spleen of CD1 mice; i.p. 1 mg/mouse, 48 hr, FIG. 4): about 1.5 times
production of IgG and IgM ([2]; SEQ ID NO:2, 48 hours after injection, FIG. 5): highly significant increase
HIV-1 replication (HIV-1): inhibit HIV-1 replication
% cells in G0/G1 (spleen cells of CD1 mice; [4]): 82.0 ± 1.2%
% cells in G2/S (spleen cells of CD1 mice; [4]): 18.0 ± 1.2%
change in [3H] thymidine incorporation (mouse splenocytes; 0.1 μg/ml oligonucleotide, FIG. 1): no significant change
cell proliferation ([3H]-thymidine incorporation) (mouse splenocytes): increases cell proliferation in a concentration-dependent manner

SEQ ID NO:3: phosphorothioate oligonucleotide that binds to the human p53 oncogene (CCCTGCTCCCCCCTGGCTCC; all phosphorothioate, sugars by position and methylation of C not given here)
immunostimulatory effect [3]: does not induce an immunostimulatory effect

SEQ ID NO:4: phosphorothioate oligonucleotide, 20-mer that contains multiple 5′-CG-3′ motifs (GAGAACGCTCGACCTTCGAT; all phosphorothioate, sugars by position and methylation of C not given here)
toxicity observation (CD1 mice): noticeable bloody exudate and congestion in abdominal cavities
immunostimulatory effect [3]: induce an immunostimulatory response both in vitro and in vivo
splenomegaly / spleen weight (spleen of CD1 mice; SEQ ID NO:4 i.p., 24 hr, FIG. 6): induced splenomegaly
increase in production of IgG and IgM antibodies ([2]; SEQ ID NO:4, FIG. 7): approximately 10 fold
% cells in G0/G1 (spleen cells of CD1 mice; i.p. 25 mg/Kg, 24 hr): 68.5 ± 0.5%
% cells in G2/S (spleen cells of CD1 mice; i.p. 25 mg/Kg, 24 hr): 22.7 ± 0.5%
Increase (cells in G2/S compared with PBS) (spleen cells of CD1 mice; i.p. 25 mg/Kg, 24 hr): 41%
stimulation of cell proliferation (cell cycle analysis) (spleen cells of CD1 mice; i.p. 25 mg/Kg, 24 hr): stimulated cell proliferation
cell proliferation ([3H]-thymidine incorporation) (mouse splenocytes): dramatic increase in cell proliferation
